The test system of data set [1] is HL-60 cells. Description: HL-60 differentiation (NBT reduction, oxidative burst potential). It is filed as cell-based. The conditions noted are these: Homo sapiens, HL-60, 72 h; 3 days; 50% of maximal differentiation achieved with 100-1000 nM calcitriol. The method, then:
The induction of differentiation of HL-60 cells was assayed by measuring their oxidative burst potential via the reduction of NBT (Nitro-bluetetraolium) according to a modified procedure of E. Pick et al. in J. Reticul.
30,000 cells/90 μl of RPMI/FCS were seeded into flat-bottomed microtiter wells. Immediately after seeding, 10 μl of vitamin D derivatives diluted in complete medium (RPMI/FCS) were added to yield final concentrations between 10^-11 and 10^-6 M (starting from 1 mM stock solutions in ethanol which were stored at -20° and protected from light). After 3 days, the medium was removed with a multichannel pipette and replaced with 100 μl of NBT solution (1 mg/ml in Dulbecco's PBS with 200 nM phorbol myristate acetate (PMA)). Following an incubation of 1 hour at 37° C. the NBT solution was removed and 100 μl of 10% SDS in 0.01N HCl was added. After further incubation at 37° C. for 6 hours (or more), the amount of the reduced NBT was quantified photometrically at 540 nm using an automated plate reader. The mean of 3 wells was calculated.
Values were expressed as percent of maximal differentiation achieved with 100-1000 nM calcitriol in the same experiment.

Data set [2] addresses T1, human VDR (Homo sapiens, UniProt P11473).
T1 construct: expressed in transfected cells; host or cells: COS cells or CV-1 cells (VDR expressed in pSG5)
T1 sequence (P11473 1-427): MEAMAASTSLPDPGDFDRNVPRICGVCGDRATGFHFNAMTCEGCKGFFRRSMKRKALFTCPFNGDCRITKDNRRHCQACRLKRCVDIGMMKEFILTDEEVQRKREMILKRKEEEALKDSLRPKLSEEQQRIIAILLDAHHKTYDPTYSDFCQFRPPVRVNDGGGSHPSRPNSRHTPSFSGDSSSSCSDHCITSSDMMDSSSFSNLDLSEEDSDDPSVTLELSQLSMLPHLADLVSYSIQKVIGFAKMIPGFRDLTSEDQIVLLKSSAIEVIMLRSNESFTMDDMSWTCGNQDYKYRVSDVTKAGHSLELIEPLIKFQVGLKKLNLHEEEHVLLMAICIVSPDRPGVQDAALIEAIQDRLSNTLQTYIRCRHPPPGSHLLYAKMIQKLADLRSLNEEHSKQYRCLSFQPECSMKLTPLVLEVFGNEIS
Description: VDR activation (transcription activation assay, luciferase reporter). Format: cell-based. The conditions noted are these: half-maximal induction of luciferase activity. From the text: In order to measure the activation of the vitamin D receptor (VDR) by vitamin D analogs in cells a transcription activation assay was used. COS cells or CV-1 cells were cotransfected with the human VDR (expressed in pSG5) and a reporter gene containing three response elements (VDRE3) from the rat osteocalcine gene, the thymidine kinase basal promoter, and the luciferase reporter gene.

Data set [3] can be described thus: Calcium liability (tolerance test in mice). Particulars: mouse, in vivo, sc; daily subcutaneous, 4 consecutive days; dose resulting in zero weight gain during 5 day treatment period; read-out: highest tolerated dose (mice). From the text: This routine test gives a global picture of calcemic liability. Profound changes in calcium homeostasis strongly affect the weight development of the animals. This parameter was used as a primary test for tolerance.
Mice (25-30 g body weight) received daily subcutaneous administrations of the vitamin D derivative for 4 consecutive days. Body weight was registered just before and at the end of a […] treatment period. The "highest tolerated dose" (HTD) in mice is the dose which results in zero weight gain during this treatment period.

We go through two compounds from patent US5905074A, “Vitamin D derivative” (Hoffmann-La Roche Inc., priority 1995, dated 1999).

In general, EC50 refers to the concentration giving half of the maximal effect.

As to `C=C1/C(=C\C=C2/CCC[C@]3(C)[C@@H]([C@H](C)CCCC(C)(C)O)CC[C@@H]23)C[C@@H](O)C[C@@H]1O` [Calcitriol, reference compound], the EC50 in data set [1] worked out at 5 nM.

Take `C=C1/C(=C\C=C2/CCC[C@]3(C)[C@@H]([C@H](C)CCCC(C)(C)O)CCC[C@@H]23)C[C@@H](O)C[C@@H]1O` [Compound of formula I, (1R,3S)-5-[(Z)-2-[(E)-(4aR,5R,8aR)-5-[(R)-5-Hydroxy-1,5-dimethyl-hexyl]-4a-methyl-octahydro-naphtalen-1-ylidene]-ethylidene]-4-methylene-cyclohexane-1,3-diol]: the concentration giving a half-maximal response (EC50) in data set [2] (COS cells) came out at 1.2 nM; in data set [2] (CV-1 cells), 0.04 nM; in data set [1] it was 0.37 nM. In addition, the MTD in data set [3] came to 0.6 µg/kg.
